Results: patent US20180346505A1, “MONONUCLEOTIDES HAVING A BIOREVERSIBLE DISULFIDE GROUP” (priority 2014, published 2018)

Key:
GT1a (H77) HCV replicon = experiment: HCV replicon assay, wild type GT1a (H77), luciferase based, stable format; assay type: cell-based, hepatitis C virus; conditions: Hepatitis C virus, GT1A, Huh-7, 72 h, Huh-7 cells
Description: (§1) The antiviral activity of the test compounds was assessed in the wild type GT1b (Con1), GT1a (H77), and GT1b/2a, GT1b/3a, GT1b/4a and GT1b/5a NS5B chimeric replicons, as well as the NS5B mutant replicons listed in Table 2a and 2b.
(§2) All the replicon assays were luciferase based in Huh-7 cells, either in stable format (GT1b and GT1a) or by transient transfection by electroporation (chimeric and mutant replicons). For a standard HCV replicon assay, stable or transiently transfected Huh-7 cells were seeded in 96-well plates (5,000 cells/well), cultured in DMEM containing 10% FBS, and incubated at 37° C., 5% CO2. On the following day, test compounds were diluted with assay media and added to the appropriate wells (final DMSO concentration in the cell culture medium was 0.5%). Assay reference positive control was included in each run to ensure assay performance. Cells were incubated at 37° C., 5% CO2 for 72 hours, at which time the cells were still sub-confluent. The antiviral activity was determined by measuring replicon reporter firefly luciferase activity using Bright Glo kit in accordance with the protocol provided by the supplier (Promega). The toxicity of the test compounds was assessed by CytoTox-1 cell proliferation assay (Promega). The half maximal effective concentration (EC50) and the half maximal toxic concentration (TC50) values were calculated using the GraphPad Prism software.

GT1b (Con1) HCV replicon = experiment: HCV replicon assay, wild type GT1b (Con1), luciferase based, stable format; assay type: cell-based, hepatitis C virus; conditions: Huh-7 cells
Description: as §1, §2

[1] = system: GT1b/4a NS5B chimeric replicon; experiment: HCV replicon assay, GT1b/4a NS5B chimeric replicon, transient transfection; assay type: cell-based, hepatitis C virus; conditions: Hepatitis C virus, Huh-7, 72 h, read-out: GT4a EC50, GT1b/4a NS5B chimeric replicon, Huh-7 cells, luciferase, 72 hours
Description: as §1
(§3) To generate HCV NS5B chimeric replicons, the GT1 b replicon was used as a backbone with the NS5B gene replaced with the NS5B gene of GT2a, GT3a, GT4a and GT5a derived from clinical isolates. These NS5B genes were cloned into the GT1b backbone and were confirmed by sequencing.
as §2

Huh-7 cells = experiment: Toxicity by CytoTox-1 cell proliferation assay (TC50) and selectivity index; assay type: cell-based; conditions: TC50 by CytoTox-1 cell proliferation assay over replicon EC50, Huh-7 cells
Description: as §2

[2] = system: GT1a S282T NS5B mutant replicon; experiment: HCV NS5B mutant replicon assay, GT1a S282T; assay type: cell-based; conditions: Hepatitis C virus, Huh-7, 72 h, read-out: GT1a S282T EC50
Description: as §1
(§4) The HCV replicon mutants were generated by site-directed mutagenesis (SDM). The SDM was performed by PCR and the PCR fragments were inserted into the backbone replicon construct. The inserted PCR fragments and the mutants were confirmed by sequencing.
as §2

[3] = system: GT1b S282T NS5B mutant replicon; experiment: HCV NS5B mutant replicon assay, GT1b S282T; assay type: cell-based; conditions: Hepatitis C virus, Huh-7, 72 h, read-out: GT1b S282T EC50
Description: as §1, §4, §2

[4] = system: GT1b S96T NS5B mutant replicon; experiment: HCV NS5B mutant replicon assay, GT1b S96T; assay type: cell-based; conditions: Hepatitis C virus, Huh-7, 72 h, read-out: GT1b S96T EC50
Description: as §1, §4, §2

[5] = system: GT1b L159F NS5B mutant replicon; experiment: HCV NS5B mutant replicon assay, GT1b L159F; assay type: cell-based; conditions: Hepatitis C virus, Huh-7, 72 h, read-out: GT1b L159F EC50
Description: as §1, §4, §2

[6] = system: GT3a S282T NS5B mutant replicon; experiment: HCV NS5B mutant replicon assay, GT3a S282T; assay type: cell-based; conditions: Hepatitis C virus, Huh-7, 72 h, read-out: GT3a S282T EC50
Description: as §1, §3, §4, §2

[7] = system: GT3a V321A NS5B mutant replicon; experiment: HCV NS5B mutant replicon assay, GT3a V321A; assay type: cell-based; conditions: Hepatitis C virus, Huh-7, 72 h, read-out: GT3a V321A EC50
Description: as §1, §3, §4, §2

[8] = Nucleoside phosphoester stability in simulated gastric fluid; assay type: in vitro ADME; conditions: simulated gastric fluid pH 1.2, 2 μM, 37° C.
Description: Test compounds at 2 μM were incubated at 37° C. with simulated gastric fluid (SGF, 0.2% (w/v) sodium chloride in 0.7% (v/v) hydrochloric acid, deionized water, 0.3% pepsin (w/v), pH 1.2). Duplicate samples were used. Samples were removed at 0, 15, 30, 60, 120, 360 and 1440 min, immediately mixed with cold acetonitrile containing internal standard (IS), and stored at −80° C. before analysis. Omeprazole was used as a positive control. Samples were analyzed by LC/MS/MS method, and disappearance of test compound was assessed by comparison of peak area ratios of analyte/IS and reported as % test compound remaining at each time point.

[9] = Nucleoside phosphoester stability in simulated intestinal fluid; assay type: in vitro ADME
Description: Test compounds at 2 μM were incubated at 37° C. with simulated intestinal fluid (SIF), which contains 0.68% (w/v) monobasic potassium phosphate and 1% (w/v) pancreatin in ultra-pure water (pH 6.8). Duplicate samples were used. Samples were removed at 0, 15, 30, 60, 120, 360 and 1440 min, immediately mixed with cold acetonitrile containing an internal standard (IS), and stored at −80° C. before analysis. Chlorambucil was used as a positive control. Samples were analyzed by a LC/MS/MS method, and disappearance of test compound was assessed by comparison of peak area ratios of analyte/IS and reported as % test compound remaining at each time point.

[10] = Hepatitis C virus, GT1B, Huh-7, 72 h

Row | Compound | EC50 (GT1a (H77) HCV replicon) [nM] | EC50 (GT1b (Con1) HCV replicon; [10]) [nM] | EC50 [1] [nM] | Selectivity Index (TC50/EC50) (Huh-7 cells) | EC50 [2] [nM] | EC50 [3] [nM] | EC50 [4] [nM] | EC50 [5] [nM] | EC50 [6] [nM] | EC50 [7] [nM] | % Remaining ([8]; 0 min) [%] | % Remaining ([8]; 15 min) [%] | % Remaining ([8]; 30 min) [%] | % Remaining ([8]; 60 min) [%] | % Remaining ([8]; 120 min) [%] | % Remaining ([8]; 360 min) [%] | % Remaining ([8]; 1440 min) [%] | also measured
1 | CC(C)OC(=O)[C@H](C)N[P@](=O)(OC[C@H]1O[C@@H](n2ccc(=O)[nH]c2=O)[C@](C)(F)[C@@H]1O)Oc1ccccc1 [sofosbuvir, reference compound] | 40 to 61 | 36 to 66 | 54 | >100 | 194 to 694 | 446 to 554 | 62 to 314 | 63 | 84 to 572 | 166 | 100.00 | 93.47 | 99.50 | 99.63 | 95.33 | 87.35 | 61.36 | % Remaining ([9]; simulated intestinal fluid pH 6.8, 2 μM, 37° C., 0 min): 100.00%; % Remaining ([9]; simulated intestinal fluid pH 6.8, 2 μM, 37° C., 15 min): 5.57%; % Remaining ([9]; simulated intestinal fluid pH 6.8, 2 μM, 37° C., 30 min): 0.00%; % Remaining ([9]; simulated intestinal fluid pH 6.8, 2 μM, 37° C., 60 min): 0.00%; % Remaining ([9]; simulated intestinal fluid pH 6.8, 2 μM, 37° C., 120 min): 0.00%; % Remaining ([9]; simulated intestinal fluid pH 6.8, 2 μM, 37° C., 360 min): 0.00%; % Remaining ([9]; simulated intestinal fluid pH 6.8, 2 μM, 37° C., 1440 min): 0.00%
2 | CC(C)(C)SSc1ccccc1CCOP1(=O)OC[C@H]2O[C@@H](n3ccc(=O)[nH]c3=O)[C@](C)(F)[C@@H]2O1 (single isomer, unassigned) [Compound 7A] | 5 to 8 | 9 | 5 | >500 | 60 | 65 | 8 | 15 to 17 | 44 | 12 | 100.00 | 95.13 | 99.01 | 92.49 | 91.52 | 91.60 | 70.36 | EC50 (GT1b (Con1) HCV replicon; 72 hours): 5 to 8 nM; % Remaining ([9]; simulated gi fluid, 0 h, 2 μM, pH 6.8): 100.00%; % Remaining ([9]; simulated gi fluid, 0.25 h, 2 μM, pH 6.8): 102.65%; % Remaining ([9]; simulated gi fluid, 0.5 h, 2 μM, pH 6.8): 104.34%; % Remaining ([9]; simulated gi fluid, 1 h, 2 μM, pH 6.8): 111.04%; % Remaining ([9]; simulated gi fluid, 2 h, 2 μM, pH 6.8): 101.89%; % Remaining ([9]; simulated gi fluid, 6 h, 2 μM, pH 6.8): 121.95%; % Remaining ([9]; simulated gi fluid, 24 h, 2 μM, pH 6.8): 51.70%
